Measurements reported in patent US20240218022A1, “ANTI-VISTA MACROCYCLIC PEPTIDES AND COMPOSITIONS” (BRISTOL-MYERS SQUIBB COMPANY, priority 2022, published 2024).
Starred links: 1 amine or outer side, 2 acyl side, 3 side chain; linkers in the order of their positions; H or OH if unused. Positions of bridges follow the written chain, without caps; N, C: chain ends. Non-standard residues stand in square brackets, D forms with d. Residues, ends and D or L forms follow the SMILES beside them. ξ: configuration not given here. Phe(3-Me) = Cc1cccc(C[C@H](N)C(=O)O)c1; γGlu = O=C(O)[C@H](CCC(=O)[*:2])N[*:1]; 2Nal = N[C@@H](Cc1ccc2ccccc2c1)C(=O)O; Ahp(2) = CCCCC[C@H](N)C(=O)O; NMeNle = CCCC[C@H](NC)C(=O)O; Tle = CC(C)(C)[C@H](N)C(=O)O; NHexGly = CCCCCCNCC(=O)O; Nle = CCCC[C@H](N)C(=O)O; Aun = NCCCCCCCCCCC(=O)O; AEEA = NCCOCCOCC(=O)O; ξP = O=C(O)C1CCCN1

Molecular target: T1, mouse VISTA (mVISTA) (Mus musculus, UniProt Q9D659)
T1 construct: expressed in transfected cells; host or cells: Human embryonic kidney 293T cells
T1 sequence (Q9D659 33-308): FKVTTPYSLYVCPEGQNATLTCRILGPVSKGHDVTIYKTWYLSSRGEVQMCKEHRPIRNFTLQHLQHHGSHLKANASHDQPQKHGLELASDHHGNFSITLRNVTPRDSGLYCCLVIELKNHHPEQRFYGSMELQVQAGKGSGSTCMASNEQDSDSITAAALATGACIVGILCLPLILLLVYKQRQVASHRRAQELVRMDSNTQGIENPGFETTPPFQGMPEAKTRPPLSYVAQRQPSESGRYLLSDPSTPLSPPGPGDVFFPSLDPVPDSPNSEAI
Test: Cell-Based Binding High-Content Assay For mVISTA (HC CBA mVISTA)
Conditions: read-out: HC CBA mVISTA IC50
Procedure, shortened: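 Read-out: Alexa 647–streptavidin signal imaged on fixed, Hoechst-stained mVISTA-293T cells, with IC50 taken from a four-parameter logistic curve. Compounds competed with 2 nM biotinylated peptide for 30 min at room temperature, tested under both no-wash and wash (1 h compound, media exchange, 1 h) formats.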

Structure (SMILES) | IC50
CCCCCCN1CC(=O)N[C@@H](Cc2ccc(O)cc2)C(=O)N[C@@H](CCCC)C(=O)N[C@@H](CC(N)=O)C(=O)N[C@@H](CCCNC(=N)N)C(=O)N(C)[C@@H](CCCC)C(=O)N[C@@H](CCCCC)C(=O)N2CCCC2C(=O)N[C@@H](C(C)C)C(=O)N[C@@H](CC(=O)O)C(=O)N[C@H](C(=O)NCC(=O)N[C@@H](CCC(=O)NCCOCCOCC(=O)N[C@@H](CC(=O)O)C(=O)NCCOCCOCC(=O)NCCCCCCCCCCC(=O)O)C(=O)O)CSCC(=O)N[C@@H](Cc2ccc3ccccc3c2)C(=O)N[C@@H](Cc2c[nH]c3ccccc23)C(=O)N[C@@H](CC(=O)O)C1=O (stereo partly shown) [compound 2125] ({CH2CO}-[2Nal]WD[NHexGly]Y[Nle]NR[NMeNle][Ahp(2)][ξP]VDCG[γGlu][AEEA]D[AEEA][Aun]-OH; thioether N-14) | 0.0196 µM
CCCCCCN1CC(=O)N[C@@H](Cc2ccc(O)cc2)C(=O)N[C@@H](CCCC)C(=O)N[C@@H](CC(N)=O)C(=O)N[C@@H](CCCNC(=N)N)C(=O)N(C)[C@@H](CCCC)C(=O)N[C@@H](CCCCC)C(=O)N2CCC[C@H]2C(=O)N[C@@H](C(C)C)C(=O)N[C@@H](CC(=O)O)C(=O)N[C@H](C(=O)NCCOCCOCC(=O)N[C@@H](CCC(=O)NCCOCCOCC(=O)NCCCCCCCCCCC(=O)O)C(=O)O)CSCC(=O)N[C@@H](Cc2ccc3ccccc3c2)C(=O)N[C@@H](Cc2c[nH]c3ccccc23)C(=O)N[C@@H](CC(=O)O)C1=O [compound 2214] ({CH2CO}-[2Nal]WD[NHexGly]Y[Nle]NR[NMeNle][Ahp(2)]PVDC[AEEA][γGlu][AEEA][Aun]-OH; thioether N-14) | 0.0327 µM
CCCCCCN1CC(=O)N[C@@H](Cc2ccc(O)cc2)C(=O)N[C@@H](CCCCC)C(=O)NCC(=O)N[C@@H](CCCNC(=N)N)C(=O)N[C@@H](CC(C)C)C(=O)N[C@@H](CCCCC)C(=O)N2CCC[C@H]2C(=O)N[C@@H](C(C)C)C(=O)N[C@@H](CO)C(=O)N[C@H](C(=O)NCCOCCOCC(=O)N[C@@H](CCC(=O)NCCOCCOCC(=O)NCCCCCCCCCCC(=O)O)C(=O)O)CSCC(=O)N[C@@H](Cc2ccccc2)C(=O)N[C@@H](Cc2ccc(O)cc2)C(=O)N[C@@H](CC(=O)O)C1=O [compound 2215] ({CH2CO}-FYD[NHexGly]Y[Ahp(2)]GRL[Ahp(2)]PVSC[AEEA][γGlu][AEEA][Aun]-OH; thioether N-14) | 0.0283 µM
CCCCCCN1CC(=O)N[C@@H](Cc2ccc(O)cc2)C(=O)N[C@@H](CCCC)C(=O)NCC(=O)N[C@@H](CCCNC(=N)N)C(=O)N[C@@H](CC(C)C)C(=O)N[C@@H](CCCCC)C(=O)N2CCC[C@H]2C(=O)N[C@@H](C(C)C)C(=O)N[C@@H](CC(=O)O)C(=O)N[C@H](C(=O)NCCOCCOCC(=O)N[C@@H](CCC(=O)NCCOCCOCC(=O)NCCCCCCCCCCC(=O)O)C(=O)O)CSCC(=O)N[C@@H](Cc2cccc(C)c2)C(=O)N[C@@H](Cc2ccc(O)cc2)C(=O)N[C@@H](CC(=O)O)C1=O [compound 2216] ({CH2CO}-[Phe(3-Me)]YD[NHexGly]Y[Nle]GRL[Ahp(2)]PVDC[AEEA][γGlu][AEEA][Aun]-OH; thioether N-14) | 0.0243 µM
CCCCCCN1CC(=O)N[C@@H](Cc2ccc(O)cc2)C(=O)N[C@@H](CC(C)C)C(=O)N[C@@H](CC(N)=O)C(=O)N[C@@H](CCCNC(=N)N)C(=O)N[C@@H](CC(C)C)C(=O)N[C@@H](CCCCC)C(=O)N2CCC[C@H]2C(=O)N[C@@H](C(C)C)C(=O)N[C@@H](C(C)C)C(=O)N[C@H](C(=O)NCCOCCOCC(=O)N[C@@H](CCC(=O)NCCOCCOCC(=O)NCCCCCCCCCCC(=O)O)C(=O)O)CSCC(=O)N[C@@H](Cc2ccccc2)C(=O)N[C@@H](Cc2ccc(O)cc2)C(=O)N[C@@H](CC(=O)O)C1=O [compound 2217] ({CH2CO}-FYD[NHexGly]YLNRL[Ahp(2)]PVVC[AEEA][γGlu][AEEA][Aun]-OH; thioether N-14) | 0.0131 µM
CCCCCCN1CC(=O)N[C@@H](Cc2ccc(O)cc2)C(=O)N[C@@H](CCCC)C(=O)N[C@@H](CC(N)=O)C(=O)N[C@@H](CCCNC(=N)N)C(=O)N(C)[C@@H](CCCC)C(=O)N[C@@H](CCCCC)C(=O)N2CCC[C@H]2C(=O)N[C@@H](C(C)C)C(=O)N[C@@H](CC(=O)O)C(=O)N[C@H](C(=O)NCCOCCOCC(=O)N[C@@H](CCC(=O)NCCOCCOCC(=O)NCCCCCCCCCCC(=O)O)C(=O)O)CSCC(=O)N[C@@H](Cc2ccccc2)C(=O)N[C@@H](Cc2c[nH]c3ccccc23)C(=O)N[C@@H](CC(=O)O)C1=O [compound 2218] ({CH2CO}-FWD[NHexGly]Y[Nle]NR[NMeNle][Ahp(2)]PVDC[AEEA][γGlu][AEEA][Aun]-OH; thioether N-14) | 0.0115 µM

More lines, now with the values ahead:

IC50 | Structure (SMILES)
0.024 µM | CCCCCCN1CC(=O)N[C@@H](Cc2ccc(O)cc2)C(=O)N[C@@H](C(C)C)C(=O)NCC(=O)N[C@@H](CCCNC(=N)N)C(=O)N[C@@H](CC(C)C)C(=O)N[C@@H](CCCCC)C(=O)N2CCC[C@H]2C(=O)N[C@@H](C(C)C)C(=O)N[C@@H](CC(=O)O)C(=O)N[C@H](C(=O)NCCOCCOCC(=O)N[C@@H](CCC(=O)NCCOCCOCC(=O)NCCCCCCCCCCC(=O)O)C(=O)O)CSCC(=O)N[C@@H](Cc2ccc3ccccc3c2)C(=O)N[C@@H](Cc2ccc(O)cc2)C(=O)N[C@@H](CC(=O)O)C1=O [compound 2219] ({CH2CO}-[2Nal]YD[NHexGly]YVGRL[Ahp(2)]PVDC[AEEA][γGlu][AEEA][Aun]-OH; thioether N-14)
0.0335 µM | CCCCCCN1CC(=O)N[C@@H](Cc2ccc(O)cc2)C(=O)N[C@@H](CC(C)C)C(=O)N[C@@H](CC(N)=O)C(=O)N[C@@H](CCCNC(=N)N)C(=O)N[C@@H](CC(C)C)C(=O)N[C@@H](CCCCC)C(=O)N2CCC[C@H]2C(=O)N[C@@H](C(C)C)C(=O)N[C@@H](C(C)C)C(=O)N[C@H](C(=O)NCCOCCOCC(=O)N[C@@H](CCC(=O)NCCOCCOCC(=O)NCCCCCCCCCCC(=O)O)C(=O)O)CSCC(=O)N[C@@H](Cc2ccccc2)C(=O)N[C@@H](Cc2cccc(C)c2)C(=O)N[C@@H](CC(=O)O)C1=O [compound 2221] ({CH2CO}-F[Phe(3-Me)]D[NHexGly]YLNRL[Ahp(2)]PVVC[AEEA][γGlu][AEEA][Aun]-OH; thioether N-14)
0.0287 µM | CCCCCCN1CC(=O)N[C@@H](Cc2ccc(O)cc2)C(=O)N[C@@H](CCCC)C(=O)N[C@@H](CC(N)=O)C(=O)N[C@@H](CCCNC(=N)N)C(=O)N[C@@H](CC(C)C)C(=O)N[C@@H](CCCCC)C(=O)N2CCC[C@H]2C(=O)N[C@@H](C(C)C)C(=O)N[C@@H](CC(=O)O)C(=O)N[C@H](C(=O)NCCOCCOCC(=O)N[C@@H](CCC(=O)NCCOCCOCC(=O)NCCCCCCCCCCC(=O)O)C(=O)O)CSCC(=O)N[C@@H](Cc2cccc(C)c2)C(=O)N[C@@H](Cc2c[nH]c3ccccc23)C(=O)N[C@@H](CC(=O)O)C1=O [compound 2222] ({CH2CO}-[Phe(3-Me)]WD[NHexGly]Y[Nle]NRL[Ahp(2)]PVDC[AEEA][γGlu][AEEA][Aun]-OH; thioether N-14)
0.0124 µM | CCCCCCN1CC(=O)N[C@@H](Cc2ccc(O)cc2)C(=O)N[C@@H](CCCC)C(=O)N[C@@H](CC(N)=O)C(=O)N[C@@H](CCCNC(=N)N)C(=O)N[C@@H](CC(C)C)C(=O)N[C@@H](CCCCC)C(=O)N2CCC[C@H]2C(=O)N[C@@H](C(C)C)C(=O)N[C@@H](CO)C(=O)N[C@H](C(=O)NCCOCCOCC(=O)N[C@@H](CCC(=O)NCCOCCOCC(=O)NCCCCCCCCCCC(=O)O)C(=O)O)CSCC(=O)N[C@@H](Cc2ccc3ccccc3c2)C(=O)N[C@@H](Cc2ccc(O)cc2)C(=O)N[C@@H](CC(=O)O)C1=O [compound 2223] ({CH2CO}-[2Nal]YD[NHexGly]Y[Nle]NRL[Ahp(2)]PVSC[AEEA][γGlu][AEEA][Aun]-OH; thioether N-14)
0.0186 µM | CCCCCCN1CC(=O)N[C@@H](Cc2ccc(O)cc2)C(=O)N[C@@H](CCCC)C(=O)N[C@@H](CC(N)=O)C(=O)N[C@@H](CCCNC(=N)N)C(=O)N(C)[C@@H](CCCC)C(=O)N[C@@H](CCCCC)C(=O)N2CCC[C@H]2C(=O)N[C@@H](C(C)(C)C)C(=O)N[C@@H](CO)C(=O)N[C@H](C(=O)NCCOCCOCC(=O)N[C@@H](CCC(=O)NCCOCCOCC(=O)NCCCCCCCCCCC(=O)O)C(=O)O)CSCC(=O)N[C@@H](Cc2ccccc2)C(=O)N[C@@H](Cc2ccc(O)cc2)C(=O)N[C@@H](CC(=O)O)C1=O [compound 2224] ({CH2CO}-FYD[NHexGly]Y[Nle]NR[NMeNle][Ahp(2)]P[Tle]SC[AEEA][γGlu][AEEA][Aun]-OH; thioether N-14)
0.0308 µM | CCCCCCN1CC(=O)N[C@@H](Cc2ccc(O)cc2)C(=O)N[C@@H](CCCC)C(=O)N[C@@H](CC(N)=O)C(=O)N[C@@H](CCCNC(=N)N)C(=O)N(C)[C@@H](CCCC)C(=O)N[C@@H](CCCCC)C(=O)N2CCC[C@H]2C(=O)N[C@@H](C(C)(C)C)C(=O)N[C@@H](CO)C(=O)N[C@H](C(=O)NCCOCCOCC(=O)N[C@@H](CCC(=O)NCCOCCOCC(=O)NCCCCCCCCCCC(=O)O)C(=O)O)CSCC(=O)N[C@@H](Cc2ccccc2)C(=O)N[C@@H](Cc2cccc(C)c2)C(=O)N[C@@H](CC(=O)O)C1=O [compound 2225] ({CH2CO}-F[Phe(3-Me)]D[NHexGly]Y[Nle]NR[NMeNle][Ahp(2)]P[Tle]SC[AEEA][γGlu][AEEA][Aun]-OH; thioether N-14)
0.0244 µM | CCCCCCN1CC(=O)N[C@@H](Cc2ccc(O)cc2)C(=O)N[C@@H](CCCC)C(=O)N[C@@H](CC(N)=O)C(=O)N[C@@H](CCCNC(=N)N)C(=O)N(C)[C@@H](CCCC)C(=O)N[C@@H](CCCCC)C(=O)N2CCC[C@H]2C(=O)N[C@@H](C(C)(C)C)C(=O)N[C@@H](CO)C(=O)N[C@H](C(=O)NCCOCCOCC(=O)N[C@@H](CCC(=O)NCCOCCOCC(=O)NCCCCCCCCCCC(=O)O)C(=O)O)CSCC(=O)N[C@@H](Cc2ccccc2)C(=O)N[C@@H](Cc2c[nH]c3ccccc23)C(=O)N[C@@H](CC(=O)O)C1=O [compound 2226] ({CH2CO}-FWD[NHexGly]Y[Nle]NR[NMeNle][Ahp(2)]P[Tle]SC[AEEA][γGlu][AEEA][Aun]-OH; thioether N-14)
